Experiments:
P23H opsin = assay: Rhodopsin purification and regeneration (P23H cells treated with compound, regenerated with 9-cis-retinal, 480-500 nm absorbance); conditions: for Fold Increase Over Control (480-500 nm absorbance as fold increase over the DMSO control): P23H cells, 48 hours, regeneration with 9-cis-retinal (20 μM)

| SMILES | Fold Increase Over Control (480-500 nm absorbance as fold increase over the DMSO control) (P23H opsin; compound concentration 10 μM) [fold] | Fold Increase Over Control (480-500 nm absorbance as fold increase over the DMSO control) (P23H opsin; compound concentration 20 μM) [fold] | other results |
| --- | --- | --- | --- |
| CC1(C)CCC[C@@]2(C)C=C[C@@H](O)[C@@H]12 (racemic) [Compound 37, (±)-(1R,3aS,7aS)-3a,7,7-trimethyl-3a,4,5,6,7,7a-hexahydro-1H-inden-1-ol] | 1.8 |  |  |
| CC1(C)CCC[C@@]2(C)CC(=O)C[C@@H]12 (racemic) [Compound 40, (±)-(3aS,7aS)-3a,7,7-trimethylhexahydro-1H-inden-2(3H)-one] | 1.8 |  |  |
| CC(C)(C)C1=CC(=O)[C@H]2C(C)(C)CCC[C@@]12C (racemic) [Compound 43, (±)-(3aR,7aS)-3-tert-butyl-3a,7,7-trimethyl-3a,4,5,6,7,7a-hexahydro-1H-inden-1-one] | 1.7 |  |  |
| CC1(C)CCC[C@@]2(C)C(C3CC3)=CC(=O)[C@@H]12 (racemic) [Compound 44, (±)-(3aR,7aS)-3-cyclopropyl-3a,7,7-trimethyl-3a,4,5,6,7,7a-hexahydro-1H-inden-1-one] | 2.2 |  |  |
| CC(C)C1=CC(=NO)[C@H]2C(C)(C)CCC[C@@]12C (racemic) [Compound 45, (±)-(3aR,7aS)-3-isopropyl-3a,7,7-trimethyl-3a,4,5,6,7,7a-hexahydro-1H-inden-1-one oxime] | 3.0 |  |  |
| CC(C)[C@@H]1CC(=O)[C@H]2C(C)(C)CCC[C@@]12C (racemic) [Compound 46, (±)-(3S,3aS,7aS)-3-isopropyl-3a,7,7-trimethyloctahydro-1H-inden-1-one] | 1.8 |  |  |
| CON=C1C=C(C(C)C)[C@]2(C)CCCC(C)(C)[C@H]12 (racemic) [Compound 51, (±)-(3aR,7aS)-3-isopropyl-3a,7,7-trimethyl-3a,4,5,6,7,7a-hexahydro-1H-inden-1-one O-methyl oxime] | 1.7 |  |  |
| CC(C)[C@@H]1C[C@H](O)[C@H]2C(C)(C)CCC[C@@]12C (racemic) [Compound 58, (±)-(1S,3S,3aS,7aS)-3-isopropyl-3a,7,7-trimethyloctahydro-1H-inden-1-ol] |  | 2.0 |  |
| CC1(C)CCC[C@@]2(C)CC[C@H](O)[C@@H]12 (racemic) [Compound 60, (±)-(1S,3aS,7aS)-3a,7,7-trimethyloctahydro-1H-inden-1-ol] |  | 2.1 |  |
| CC(C)[C@H]1C(=O)C=C2[C@H]1CCCC2(C)C (racemic) [Compound 61, (±)-(1R,7aS)-1-isopropyl-4,4-dimethyl-5,6,7,7a-tetrahydro-1H-inden-2(4H)-one] |  | 1.8 |  |
| CC1(C)CCC[C@@]2(C)CC(=NO)C[C@@H]12 (racemic) [Compound 62, (±)-(3aS,7aS)-3a,7,7-trimethylhexahydro-1H-inden-2(3H)-one oxime] |  | 2.3 |  |
| CC1(C)CCC[C@@]2(C)CC(O)C[C@@H]12 (mixture of isomers) [Compound 63, (±)-(3aS,7aS)-3a,7,7-trimethyloctahydro-1H-inden-2-ol] |  | 2.3 |  |
| CC1=C(C)[C@H]2[C@H](CCCC2(C)C)C1=O (racemic) [Compound 64, (±)-(3aS,7aS)-2,3,4,4-tetramethyl-3a,4,5,6,7,7a-hexahydro-1H-inden-1-one] |  | 2.1 |  |
| CC1=C(C)[C@]2(C)CCCC(C)(C)[C@@H]2C1=O (racemic) [Compound 65, (±)-(3aR,7aS)-2,3,3a,7,7-pentamethyl-3a,4,5,6,7,7a-hexahydro-1H-inden-1-one] |  | 1.8 |  |
| CC1=C(C)[C@]2(C)CCCC(C)(C)[C@@H]2[C@H]1O (racemic) [Compound 66, (±)-(1R,3aR,7aS)-2,3,3a,7,7-pentamethyl-3a,4,5,6,7,7a-hexahydro 1H inden-1-ol] |  | 1.9 |  |
| C[C@H]1C(=O)C=C2[C@H]1CCCC2(C)C (racemic) [Compound 67, (±)-(1R,7aS)-1,4,4-trimethyl-5,6,7,7a-tetrahydro-1H-inden-2(4H)-one] |  | 1.8 |  |
| C[C@@H]1CC(=O)C2=CCCC(C)(C)[C@H]21 (racemic) [Compound 71, (±)-(3R,3aR)-3,4,4-trimethyl-2,3,3a,4,5,6-hexahydro-1H-inden-1-one] |  | 2.2 |  |
| CC1=C(C)[C@H]2[C@H](CCCC2(C)C)[C@@H]1O (racemic) [Compound 72, (±)-(1S,3aS,7aS)-2,3,4,4-tetramethyl-3a,4,5,6,7,7a-hexahydro-1H-inden-1-ol] |  | 1.9 |  |
| CC1(C)CCC(C)(C)C2CC(=O)C=C21 (single isomer, unassigned) [Compound 69b, (−)-4,4,7,7-tetramethyl-5,6,7,7a-tetrahydro-1H-inden-2(4H)-one] |  | 1.8 |  |
| CN1CC2=C(C1=O)C(C)(C)CCC2 [Compound 13, 2,7,7-trimethyl-2,3,4,5,6,7-hexahydro-1H-isoindol-1-one] |  | 2.2 |  |
| CC1(C)CCCC2=CC(=O)CC21 (centres unmarked) [Compound 27, 7,7-dimethyl-5,6,7,7a-tetrahydro-1H-inden-2(4H)-one] | 2.0 |  |  |
| CC1(C)CCCC2(C)CC(=NO)C=C12 (centres unmarked) [Compound 30, 4,4,7a-trimethyl-5,6,7,7a-tetrahydro-1H-inden-2(4H)-one oxime] | 1.8 |  |  |
| CON=C1C=C2C(C)(C)CCCC2(C)C1 (centres unmarked) [Compound 31, 4,4,7a-trimethyl-5,6,7,7a-tetrahydro-1H-inden-2(4H)-one O-methyl oxime] | 1.6 |  |  |
| CC1(C)CCC(C)(C)C2CC(=O)C=C21 (centres unmarked) [Compound 41, 4,4,7,7-tetramethyl-5,6,7,7a-tetrahydro-1H-inden-2(4H)-one] | 1.9 |  |  |
| CC1(C)CCCC2CC(=O)C=C21 (centres unmarked) [Compound 53, 4,4-dimethyl-5,6,7,7a-tetrahydro-1H-inden-2(4H)-one] | 1.7 |  |  |
| CC1(C)CCCC2CC(=NO)CC21 (centres unmarked) [Compound 55, 4,4-dimethylhexahydro-1H-inden-2(3H)-one oxime] | 2.8 |  |  |
| CC1(C)CCCC2=C1CCC2=O [Compound 56, 4,4-dimethyl-2,3,4,5,6,7-hexahydro-1H-inden-1-one] | 1.7 |  |  |
| CC1(C)CCC(C)(C)[C@H]2CC(=O)C=C21 [Compound 69a, (+)-4,4,7,7-tetramethyl-5,6,7,7a-tetrahydro-1H-inden-2(4H)-one] |  | 2.0 | melting point: 35 to 38 °C |
| CC1(C)CCC(C)(C)[C@H]2CC(=O)C[C@H]21 [Compound 70, (3aR,7aS) and (3aS,7aR)-4,4,7,7-tetramethylhexahydro-1H-inden-2(3H)-one] |  | 1.9 |  |
| CC(=O)/C=C/C1=C(C)CCCC1(C)C [β-ionone, reference compound] |  | 2.4 | regeneration of 500 nm absorbing pigment upon treatment with retinal (P23H opsin; FIG. 1, P23H opsin treated with 20 µM during mutant protein production, relative to vehicle (DMSO) alone): increase |
